Reference: patent US8653046B2, “Controlling transgene expression across the skin” (ETH Zurich, priority 2009, dated 2014)

What was measured:
[1] = system: CHO-K1; experiment: Toxicity of flavonoids: CHO-K1 transiently transfected with pSEAP2-Control, SEAP levels after 48 h; conditions: 0, 25, 50 μM, genistein cytotoxic only at 50 μM
Method: (A) Toxicity of flavonoids. CHO-K1 are transiently transfected with pSEAP2-Control, and cultivated in medium supplemented with different flavonoids (0, 25, 50 μM). SEAP levels are scored after 48 h.
CHO-K1 are transiently (co-)transfected with either pMG10 (PTtgR1-SEAP-pA) and pMG11 (PSV40-TtgA1-pA), to score regulation performance, or with pSEAP2-Control (PSV40-SEAP-pA), to assess compound-related cytotoxicity, and then cultivated for 48 h in medium containing different concentrations (0, 25, 50 μM) of specific flavonoid type compounds (berberine, butylparaben, genistein, luteolin, β-naphthol, naringenin, phloretin, phloridzin or quercetin) before SEAP production is profiled (FIG. 5A).
Wild-type Chinese hamster ovary cells (CHO-K1, ATCC: CCL-61) and their derivatives are cultivated in standard medium: ChoMaster® HTS (Cell Culture Technologies, Gravesano, Switzerland) supplemented with 5% (v/v) fetal calf serum (FCS, PAN Biotech GmbH, Aidenbach, Germany, Cat. No. 3302, Lot No. P251110) and 1% (v/v) penicillin/streptomycin solution (Sigma, St Louis, Mo., USA, Cat. No. P4458). Human embryonic kidney cells (HEK-293, Mitta B., et al., 2002, Nucleic Acids Res 30(21):e113), African green monkey kidney cells (COS-7, ATCC: CRL-1651), baby hamster kidney cells (BHK-21, ATCC: CCL10), human fibrosarcoma cells (HT-1080, ATCC: CCL-121), the human keratinocyte cell line HaCaT (Boukamp P., et al., 1988, J Cell Biol 106(3):761-771) and mouse fibroblasts (NIH/3T3, ATCC: CRL-1658) are cultured in Dulbecco's modified Eagle's medium (DMEM; Invitrogen, Cat. No. 52100-39) supplemented with 10% FCS (v/v) and 1% (v/v) penicillin/streptomycin solution. Primary human foreskin fibroblasts are cultivated in DMEM supplemented with 20% FCS (v/v) and 1% (v/v) penicillin/streptomycin solution and primary human foreskin keratinocytes are cultured in chemically defined serum-free keratinocyte medium (Invitrogen, Cat. No. 10744019). All cell types are cultivated at 37° C. in a 5% CO2-containing humidified atmosphere. For transient transfection of CHO-K1, 1 μg of total plasmid DNA (for co-transfection an equal amount of each plasmid) is transfected into 50,000 cells per well of a 24-well plate according to an optimized calcium phosphate protocol (Greber D., Fussenegger M., 2007, Biotechnol Bioeng 96(5):821-834). Plasmid DNA is diluted to a total volume of 25 μL 0.5 M CaCl2 solution, which is mixed with 25 μL 2×HBS solution (50 mM HEPES, 280 mM NaCl, 1.5 mM Na2HPO4, pH 7.1). After incubation for 15 min at room temperature, the precipitates are immediately added to the well and centrifuged onto the cells (5 min at 1,200×g) to increase transfection efficiency. After 3 h, the cells are treated with 0.5 mL glycerol solution (ChoMaster® HTS medium containing 15% glycerol) for 60 sec. After washing once with phosphate-buffered saline (PBS, Dulbecco's Phosphate-Buffered Saline; Invitrogen, Cat. No. 21600-0069), cells are cultivated in 0.5 mL standard ChoMaster® HTS medium in the presence or absence of different concentrations of phloretin. For transfection of BHK-21, COS-7 and HEK-293, plasmid DNA-Ca2PO4 precipitate is prepared and applied to the cells as described above. HEK-293 and COS-7 cells are washed once with PBS after 3 h incubation with the DNA-Ca2PO4 precipitate and subsequently cultivated in standard DMEM, while BHK-21 cells are incubated overnight with the precipitates and then cultivated in DMEM medium after being washed once with PBS. […]

[2] = system: CHO-K1; experiment: Impact of phloretin on CHO-K1 engineered for constitutive SEAP expression (SEAP production, viable cell density); type: cell-based, Chinese hamster; conditions: 48 h
Method: CHO-K1 engineered for constitutive SEAP expression are cultivated in culture medium supplemented with different phloretin concentrations (0-100 μM) and SEAP production (bars) as well as maximum cell density are assessed after 48 h (line). Abbreviations: C.D.: Cell Density (10^6/mL); Phl.: Phloretin (μM)
To evaluate the stability of phloretin in culture medium and assess its impact on mammalian cells, standard ChoMaster® HTS medium is supplemented with increasing concentrations of phloretin (0, 25, 50, 75, 100 μM), and this medium is incubated in the presence and absence of CHO-K1 engineered for constitutive SEAP expression (pSEAP2-Control; PSV40-SEAP-pA, Clontech). […] Phloretin levels determined over a period of 64 h in cell-free culture medium establish a functional half-live of 70 h for this flavonoid.

[3] = Stability (half-live) of phloretin in culture medium, quantified via CHO-PEACE8 SEAP calibration curve; type: physicochemical
[4] = target: T1, tetracycline-responsive control system (PSV40-tTA-pA; PhCMV*-1-SAMY-pA) (Escherichia coli, UniProt P04483); experiment: Compatibility test: tetracycline-responsive (TETOFF) SAMY production in CHO-PEACE8 (pSAM200, pBP99); type: cell-based; conditions: CHO-PEACE8 transiently transfected with tetracycline-responsive control system; Phl 50 μM, Tet 2 μg/mL; 48 h; 100 = no inducer
T1 construct: expressed in transfected cells; host or cells: CHO-PEACE8 transiently transfected with pSAM200 and pBP99
T1 sequence (P04483 whole entry, added parts left off): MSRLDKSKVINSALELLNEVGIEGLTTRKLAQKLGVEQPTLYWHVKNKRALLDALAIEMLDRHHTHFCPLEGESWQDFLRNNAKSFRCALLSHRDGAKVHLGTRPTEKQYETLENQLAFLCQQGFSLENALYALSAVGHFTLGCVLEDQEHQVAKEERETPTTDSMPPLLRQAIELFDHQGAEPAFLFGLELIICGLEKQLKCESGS
From the text: To evaluate the functional compatibility of PEACE with the established tetracycline— [TETOFF; Gossen M., Bujard H., 1992, Proc Natl Acad Sci USA 89(12):5547-5551] and macrolide— [EOFF; Weber W., et al., 2002, Nat Biotechnol 20(9):901-907] responsive expression circuits CHO-PEACE8 is transiently transfected, transgenic for phloretin-responsive SEAP expression, with either the TETOFF-(pSAM200, PSV40-tTA-pA; pBP99, PhCMV*-1-SAMY-pA) or the EOFF-(PWW35, PSV40-ET1-pA; pBP100, PETR3-SAMY-pA) system set to control the Bacillus stearothermophilus-derived secreted α-amylase (SAMY) in response to tetracycline and erythromycin, respectively. SEAP and SAMY expression are scored 48 h after cultivation of the transfected populations in the presence (50 μM; 2 μg/mL) or absence of the inducer molecules (phloretin, tetracycline, erythromycin).

O=C(CCc1ccc(O)cc1)c1c(O)cc(O)cc1O [phloretin, 3-[4-hydroxyphenyl]-1-[2,4,6-trihydroxyphenyl]-1-propanone]
compound-related cytotoxicity / cell viability [1]: do not reduce cell viability | impact on heterologous protein (SEAP) production ([2]; CHO-K1 constitutive SEAP (pSEAP2-Control), phloretin 0, 25, 50, 75, 100 μM): no negative impact on heterologous protein production | viable cell density / CHO-K1 proliferation ([2]; phloretin up to 100 μM): does not compromise CHO-K1 proliferation | functional half-live ([3]; cell-free culture medium, levels determined over 64 h): 70 h | half-live ([3]; mammalian cell culture systems): 70 h | Relative SAMY Production (%) [4]: 98.1 ± 2.8%
